pIC50: −log10 of the molar value.
Legend:
[1] = target: GluN1-CC/2A receptors (GluN1-N499C+Q686C) (Rattus norvegicus, UniProt P35439+Q00959, N499C/Q686C); assay type: cell-based; conditions: 100 μM glutamate alone; glycine 300 μM, 7CKA 10 μM, TCN-201 5 μM, MPX-004 10 μM, MPX-007 30 μM
[2] = Solubility-limited maximal concentration in recording solution; assay type: physicochemical; conditions: extracellular recording solution pH 7.4, DMSO < 0.3%
GluN1/2B-D receptors = assay type: cell-based
GluN1/2A receptors = GluN1/2A receptors (Rattus norvegicus, UniProt P35439+Q00959); assay type: cell-based; conditions: for increase of IC50 in 30 μM glycine compared to 3 μM glycine: 100 μM glutamate; for extent of inhibition of GluN1/2A / pIC50: activated by 100 μM glutamate plus 3 μM glycine; for pIC50: read-out: IC50 for inhibition of GluN1/2A
GluN1/2B receptors = GluN1/2B receptors (Rattus norvegicus, UniProt P35439+Q00960); assay type: cell-based
[3] = target: GluN1/2A receptors with GluN1-Y535L (Rattus norvegicus, UniProt P35439+Q00959, Y535L); experiment: Schild analysis of TCN-201, GluN1-Y535L; assay type: cell-based
[4] = target: GluN1/2A receptors with GluN1-Y535F (Rattus norvegicus, UniProt P35439+Q00959, Y535F); experiment: Schild analysis of TCN-201, GluN1-Y535F; assay type: cell-based
[5] = target: GluN1/2A receptors with GluN2A-V783F (Rattus norvegicus, UniProt P35439+Q00959, V783F); experiment: Glycine concentration-response and Schild analysis, GluN2A-V783F; assay type: cell-based; conditions: read-out: binding affinity KB
[6] = target: GluN1/2A receptors with GluN1-F754V (Rattus norvegicus, UniProt P35439+Q00959, F754V); experiment: Glycine concentration-response and Schild analysis, GluN1-F754V; assay type: cell-based
[7] = target: GluN1/2A receptors with GluN1-R755A (Rattus norvegicus, UniProt P35439+Q00959, R755A); experiment: TCN-201 inhibition, GluN1-R755A; assay type: cell-based
[8] = target: GluN1/2A receptors with GluN1-F754L (Rattus norvegicus, UniProt P35439+Q00959, F754L); experiment: Glycine concentration-response and Schild analysis, GluN1-F754L; assay type: cell-based
[9] = target: GluN1/2A receptors with GluN2A-V783A (Rattus norvegicus, UniProt P35439+Q00959, V783A); experiment: Glycine concentration-response and Schild analysis, GluN2A-V783A; assay type: cell-based
[10] = target: wild type GluN1/2A receptors (Rattus norvegicus, UniProt P35439+Q00959); assay type: cell-based

Chain of GluN1/2A receptors (Q00959 20-1464 limits assumed, other chains not shown): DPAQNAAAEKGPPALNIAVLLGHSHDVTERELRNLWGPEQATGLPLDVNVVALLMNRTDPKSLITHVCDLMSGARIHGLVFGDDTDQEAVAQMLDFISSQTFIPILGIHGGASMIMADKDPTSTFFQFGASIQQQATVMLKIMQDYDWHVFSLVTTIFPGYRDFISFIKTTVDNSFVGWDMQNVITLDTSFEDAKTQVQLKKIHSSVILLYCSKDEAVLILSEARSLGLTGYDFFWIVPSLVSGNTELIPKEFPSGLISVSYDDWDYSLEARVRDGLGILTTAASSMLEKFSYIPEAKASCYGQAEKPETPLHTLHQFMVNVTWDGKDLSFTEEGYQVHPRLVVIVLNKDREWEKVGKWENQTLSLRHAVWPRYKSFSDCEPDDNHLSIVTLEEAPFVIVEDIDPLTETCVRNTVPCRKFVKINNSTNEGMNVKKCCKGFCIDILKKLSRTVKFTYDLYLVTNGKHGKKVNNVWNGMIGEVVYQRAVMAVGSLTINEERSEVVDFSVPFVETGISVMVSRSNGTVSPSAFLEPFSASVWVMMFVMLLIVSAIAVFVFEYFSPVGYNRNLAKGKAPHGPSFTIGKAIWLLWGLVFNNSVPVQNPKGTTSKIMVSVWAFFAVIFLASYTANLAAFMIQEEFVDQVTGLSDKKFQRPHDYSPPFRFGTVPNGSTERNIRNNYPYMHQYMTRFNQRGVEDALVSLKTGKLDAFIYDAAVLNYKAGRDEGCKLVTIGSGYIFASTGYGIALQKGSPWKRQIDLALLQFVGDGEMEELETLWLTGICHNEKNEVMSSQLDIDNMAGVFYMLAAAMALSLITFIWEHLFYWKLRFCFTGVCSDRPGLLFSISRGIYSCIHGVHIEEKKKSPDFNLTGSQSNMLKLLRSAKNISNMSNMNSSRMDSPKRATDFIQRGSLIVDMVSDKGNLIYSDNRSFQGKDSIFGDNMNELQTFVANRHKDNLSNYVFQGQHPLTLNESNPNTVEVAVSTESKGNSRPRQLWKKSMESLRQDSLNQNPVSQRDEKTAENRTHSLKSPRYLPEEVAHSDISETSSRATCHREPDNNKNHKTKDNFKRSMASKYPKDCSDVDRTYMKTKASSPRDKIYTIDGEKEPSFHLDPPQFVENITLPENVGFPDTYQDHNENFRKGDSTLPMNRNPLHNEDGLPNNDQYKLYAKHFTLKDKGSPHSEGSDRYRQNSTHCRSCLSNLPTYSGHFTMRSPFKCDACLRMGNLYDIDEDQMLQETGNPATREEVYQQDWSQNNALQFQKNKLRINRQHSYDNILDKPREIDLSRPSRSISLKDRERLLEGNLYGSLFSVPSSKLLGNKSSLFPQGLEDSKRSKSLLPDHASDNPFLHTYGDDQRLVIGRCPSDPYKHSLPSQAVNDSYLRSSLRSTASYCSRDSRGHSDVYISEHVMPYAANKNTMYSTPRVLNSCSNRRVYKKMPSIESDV
Chain of GluN1/2A receptors with GluN1-F754V (Q00959 20-1464 limits assumed, other chains not shown): as above
Chain of GluN1/2A receptors with GluN1-F754L (Q00959 20-1464 limits assumed, other chains not shown): as above

| Structure (SMILES) | effect on glutamate-activated responses from crosslinked GluN1-CC/2A [1] | maximal concentration used, limited by compound solubility [2] [µM] | selectivity for GluN1/2A over GluN1/2B-D (GluN1/2B-D receptors) | increase of IC50 in 30 μM glycine compared to 3 μM glycine (GluN1/2A receptors; GluN1/2A) [fold] | maximal inhibition (GluN1/2A receptors; GluN1/2A, 300 μM glycine) | extent of inhibition of GluN1/2A (GluN1/2A receptors) | pIC50 (GluN1/2A receptors) | other results |
| --- | --- | --- | --- | --- | --- | --- | --- | --- |
| O=C(O)c1cc(O)c2ccc(Cl)cc2n1 [7CKA] | not sensitive |  |  |  |  |  |  |  |
| Cc1ncc(CNC(=O)c2cnc(CNS(=O)(=O)c3ccc(F)c(Cl)c3)cn2)s1 [MPX-004] | significant potentiation | 10 | strict selectivity | 3.8 | 71% ± 4% | nearly complete inhibition | ~6.70 |  |
| Cc1ncc(CNC(=O)c2cnc(CNS(=O)(=O)c3ccc(F)c(F)c3)c(C)n2)s1 [MPX-007] |  | 30 |  | 3.2 | 95% ± 1% | nearly complete inhibition | ~6.70 | concentrations at which GluN1/2B-D receptors are inhibited (GluN1/2B-D receptors): 10 to 30 µM; glycine-sensitivity of inhibition of GluN1/2B (GluN1/2B receptors): sensitive to the glycine concentration; inhibition of GluN1/2B receptors (GluN1/2B receptors; 30 μM compound, 3 μM glycine, n = 6): 48% ± 3% |
| O=C(NNC(=O)c1ccc(CNS(=O)(=O)c2ccc(F)c(Cl)c2)cc1)c1ccccc1 [TCN-201] |  | 5 | strict selectivity |  |  | nearly complete inhibition | ~6.70 | allosteric constant [3]: 0.016; allosteric constant compared to wild type [4]: virtually unchanged; binding affinity KB compared to wild type [4]: virtually unchanged; Kb [5]: 186 nM; allosteric constant [6]: 0.086; maximal increase of glycine EC50 (1/α) [6]: 12 fold; Kb ([6]; read-out: binding affinity KB): 131 nM; inhibition [7]: abolished; allosteric constant [8]: 0.018; binding affinity KB compared to wild type [8]: little to no change; inhibition in 300 μM glycine (GluN1/2A receptors; GluN1/2A, 300 μM glycine): markedly diminished; allosteric constant α [9]: 0.001; maximal increase of glycine EC50 (1/α) [10]: 143 fold; allosteric constant α ([10]; Schild analysis): 0.007 |
